This is an account of results in patent publication US20230051589A1, “COMPOUNDS AND COMPOSITIONS FOR TREATING CONDITIONS ASSOCIATED WITH NLRP ACTIVITY” (Novartis AG, priority 2018, published 2023).

In general, IC50 refers to the concentration that gives 50% inhibition.

Some results are limits rather than exact numbers.

The first assay concerns IL-1β production in PMA-differentiated THP-1 cells. Briefly: IL-1β production in PMA-differentiated THP-1 cells stimulated with gramicidin (hTHP-1 assay, 2% fetal bovine serum; Procedures 1-3). The following applies: Homo sapiens, THP-1, hTHP-1 assay containing 2% fetal bovine serum, Table B2, class symbols; read-out: IC50. It is filed as cell-based, human. The method in brief: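 PMA-primed THP-1 cells (20 ng/ml PMA, 16-18 h) in RPMI with 2% FBS were pre-incubated with compounds for 1 h, from 100 μM downward in 3-fold steps (0.37% DMSO final), then stimulated with 5 μM gramicidin for 2 h. IL-1β in the supernatant was quantified by HTRF.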
As for `CN1CCc2ccc(S(N)(=O)=NC(=O)Nc3c4c(cc5c3CCC5)CCC4)cc2C1` (single isomer, unassigned) [Example 585, (R) or (S)-N′-((1,2,3,5,6,7-hexahydro-s-indacen-4-yl)carbamoyl)-2-methyl-1,2,3,4-tetrahydroisoquinoline-7-sulfonimidamide], the IC50 was in the range of 1 to 5 µM.
For `CC(C)(O)c1cnc(S(N)(=O)=NC(=O)Nc2c3c(cc4c2CCC4=O)CCC3)s1` (single isomer, unassigned) [Example 589, (R) or (S)-5-(2-hydroxypropan-2-yl)-N′-((1-oxo-1,2,3,5,6,7-hexahydro-s-indacen-4-yl)carbaamoyl) thiazole-2-sulfonimidamide], the IC50 fell in the range of 1 to 5 µM.
Take `CC(C)(O)c1ccc(S(N)(=O)=NC(=O)Nc2cc3c(c4c2CCC4)CCC3)cn1` (single isomer, unassigned) [Example 591, (R) or (S)-N′-((1,2,3,6,7,8-hexahydro-as-indacen-4-yl)carbamoyl)-6-(2-hydro\ypropan-2-yl)pyridine-3-sulfonimidamide]: the IC50 fell in the range of 1 to 5 µM.

The assay is the same for the next values; noted with them: Homo sapiens, THP-1, hTHP-1 assay containing 2% fetal bovine serum, Table B2, given as bound; read-out: IC50.
For the compound `CN1CCc2ccc(S(N)(=O)=NC(=O)Nc3c4c(cc5c3CCC5)CCC4)cc2C1` (single isomer, unassigned) [Example 584, (S) or (R)-N′-((1,2,3,5,6,7-hexahydro-s-indacen-4-yl)carbamoyl)-2-methyl-1,2,3,4-tetrahydroisoquinoline-7-sulfonimidamide], the IC50 was more than 30 µM.
With `NS(=O)(=NC(=O)Nc1c2c(cc3c1CCC3)CCC2)c1ccc(C2CCCC2)nc1` (single isomer, unassigned) [Example 586, (S) or (R)-6-cyclopentyl-N′-((1,2,3,5,6,7-hexahydro-s-indacen-4-yl)carbamoyl)pyridine-3-sulfonimidamide], the IC50 was more than 30 µM.
As for `CC(C)(O)c1cnc(S(N)(=O)=NC(=O)Nc2c3c(cc4c2CCC4=O)CCC3)s1` (single isomer, unassigned) [Example 588, (S) or (R)-5-(2-hydroxypropan-2-yl)-N′-((1-oxo-1,2,3,5,6,7-hexahydro-s-indacen-4-yl)carbamoyl) thiazole-2-sulfonimidamide], the IC50 is more than 30 µM.
As to `CC(C)(O)c1ccc(S(N)(=O)=NC(=O)Nc2cc3c(c4c2CCC4)CCC3)cn1` (single isomer, unassigned) [Example 590, (S) or (R)-N′-((1,2,3,6,7,8-hexahydro-as-indacen-4-yl)carbamoyl)-6-(2-hydroxypropan-2-yl)pyridine-3-sulfonimidamide], the IC50 is more than 30 µM.

The assay is the same for the next values; noted with them: hTHP-1 assay containing 2% fetal bovine serum, Table B2, class symbols; read-out: IC50.
As for `CC(C)(O)c1cc(C#N)cc(S(N)(=O)=NC(=O)Nc2c3c(c(C#N)c4c2CCC4)CCC3)c1` (single isomer, unassigned) [Example 578, (R) or (S)-3-cyano-N′-((8-cyano-1,2,3,5,6,7-hexahydro-s-indacen-4-yl)carbamoyl)-5-(2-hydroxypropan-2-yl) benzenesulfonimidamide], the IC50 is 1 to 5 µM.
Still for that read-out and setting: the value for `CC(C)(O)c1cc(C#N)cc(S(N)(=O)=NC(=O)Nc2c3c(c(C#N)c4c2CCC4)CCC3)c1` (single isomer, unassigned) [Example 579, (S) or (R)-3-cyano-N′-((8-cyano-1,2,3,5,6,7-hexahydro-5-indacen-4-yl)carbamoyl)-5-(2-hydroxypropan-2-yl) benzenesulfonimidamide] was 5 to 30 µM.
Consider `CN(C)Cc1ccc(S(N)(=O)=NC(=O)Nc2c3c(cc4c2CC4)CCC3)cc1` (single isomer, unassigned) [Example 580, (R) or (S)-4-((dimethylamino)methyl)-N′-((2,4,5,6-tetrahydro-1H-cyclobuta[f]inden-3 - yl)carbamoyl) benzenesulfonimidamide], for which the IC50 was in the range of 0.2 to 1 µM.
For the compound `CN(C)Cc1ccc(S(N)(=O)=NC(=O)Nc2c3c(cc4c2CC4)CCC3)cc1` (single isomer, unassigned) [Example 581, (S) or (R)-4-((dimethylamino)methyl)-N′-((2,4,5,6-tetrahydro-1H-cyclobuta[f]inden-3-yl)carbamoyl) benzenesulfonimidamide], the IC50 was in the range of 5 to 30 µM.
Regarding `CN(C)Cc1ccc(S(N)(=O)=NC(=O)Nc2c3c(cc4c2CC4)CC3)cc1` (single isomer, unassigned) [Example 582, (R) or (S)-4-((dimethylamino)methyl)-N′-(tricyclo[6.2.0.03,6]deca-1,3(6),7-trien-2-ylcarbamoyl) benzenesulfonimidamide], the IC50 is 0.2 to 1 µM.
For `CN(C)Cc1ccc(S(N)(=O)=NC(=O)Nc2c3c(cc4c2CC4)CC3)cc1` (single isomer, unassigned) [Example 583, (S) or (R)-4-((dimethylamino)methyl)-N′-(tricyclo[6.2.0.03,6]deca-1,3(6),7-trien-2-ylcarbamoyl) benzenesulfonimidamide], the IC50 fell in the range of 5 to 30 µM.
Turning to `CNC(C)(C)c1ccc(S(N)(=O)=NC(=O)Nc2c3c(cc4c2CCC4)CCC3)c(F)c1` (single isomer, unassigned) [Example 592, (S) or (R)-2-fluoro-N′-((1,2,3,5,6,7-hexahydro-s-indacen-4-yl)carbamoyl)-4-(2-(methylamino)propan-2-yl) benzenesulfonimidamide], the IC50 was in the range of 5 to 30 µM.
For the compound `CNC(C)(C)c1ccc(S(N)(=O)=NC(=O)Nc2c3c(cc4c2CCC4)CCC3)c(F)c1` (single isomer, unassigned) [Example 593, (R) or (S)-2-fluoro-N′-((1,2,3,5,6,7-hexahydro-s-indacen-4-yl)carbamoyl)-4-(2-(methylamino)propan-2-yl) benzenesulfonimidamide], the IC50 was in the range of 0.2 to 1 µM.
In the case of `N[S@@](=O)(=NC(=O)Nc1c2c(cc3c1CCC3)CCC2)c1ccc(C(F)F)nc1` (single isomer, unassigned) [Example 595, (R) or (S)-6-(difluoromethyl)-N′-((1,2,3,5,6,7-hexahydroxy-indacen-4-yl)carbamovl)pyridine-3-sulfonimidamide], the IC50 fell in the range of 1 to 5 µM.
In the case of `CC(C)(O)c1ncc(S(N)(=O)=NC(=O)Nc2c3c(c(Cl)c4c2CCC4)CCC3)s1` (single isomer, unassigned) [Example 596, (S) or (R)-N′-((8-chloro-1,2,3,5,6,7-hexahydro-s-indacen-4-yl)carbamoyl)-2-(2-hydroxypropan-2-yl)thiazole-5-sulfonimidamide], the IC50 is 1 to 5 µM.
Still for that read-out and setting: the value for `CC(C)(O)c1ncc(S(N)(=O)=NC(=O)Nc2c3c(c(Cl)c4c2CCC4)CCC3)s1` (single isomer, unassigned) [Example 597, (R) or (S)-N′-((8-chloro-1,2,3,5,6,7-hexahydro-s-indacen-4-yl)carbamoyl)-2-(2-hydroxypropan-2-yl)thiazole-5-sulfonimidamide] was 0.04 to 0.2 µM; that for `CC(C)(O)c1csc(S(N)(=O)=NC(=O)Nc2c3c(cc4c2CCC4=O)CCC3)c1` (single isomer, unassigned) [Example 598, (R) or (S)-4-(2-hydroxypropan-2-yl)-N′-((1-oxo-1,2,3,5,6,7-hexahydro-s-indacen-4-yl)carbamoyl) thiophene-2-sulfonimidamide] was 0.2 to 1 µM; that for `CC(C)(O)c1csc(S(N)(=O)=NC(=O)Nc2c3c(cc4c2CCC4=O)CCC3)c1` (single isomer, unassigned) [Example 599, (S) or (R)-4-(2-hydroxypropan-2-yl)-N′-((1-oxo-1,2,3,5,6,7-hexahydro-s-indacen-4-yl)carbamoyl) thiophene-2-sulfonimidamide] was 5 to 30 µM.
Same read-out and setting: under `CC(C)(O)c1cc(F)c(S(N)(=O)=NC(=O)Nc2c3c(cc4c2CCC4=O)CCC3)s1` (single isomer, unassigned) [Example 600, (R) or (S)-3-fluoro-5-(2-hydroxypropan-2-yl)-N′-((1-oxo-1,2,3,5,6,7-hexahydro-s-indacen-4-yl)carbamoyl)thiophene-2-sulfonimidamide] stands 0.2 to 1 µM; under `CC(C)(O)c1cc(F)c(S(N)(=O)=NC(=O)Nc2c3c(cc4c2CCC4=O)CCC3)s1` (single isomer, unassigned) [Example 601, (S) or (R)-3-fluoro-5-(2-hydroxypropan-2-yl)-N′-((1-oxo-1,2,3,5,6,7-hexahydro-s-indacen-4-yl)carbamoyl)thiophene-2-sulfonimidamide], 5 to 30 µM; under `CNC(C)(C)c1ccc(S(N)(=O)=NC(=O)Nc2c3c(cc4c2CCC4)CCC3)cc1` (single isomer, unassigned) [Example 602, (R) or (S)-N′-((1,2,3,5,6,7-hexahydro-s-indacen-4-yl)carbamoyl)-4-(2-(methylamino)propan-2-yl) benzenesuIfonimidamide], 0.2 to 1 µM.

The assay is the same for the next values; noted with them: hTHP-1 assay containing 2% fetal bovine serum, Table B2, given as bound; read-out: IC50.
For the compound `N[S@](=O)(=NC(=O)Nc1c2c(cc3c1CCC3)CCC2)c1ccc(OC(F)F)cc1` (single isomer, unassigned) [Example 577, (S) or (R)-4-(difluoromethoxy)-N′-((1,2,3,5,6,7-hexahydro-s-indacen-4-yl)carbamoyl) benzenesulfonimidamide], the IC50 is more than 30 µM.
Turning to `NS(=O)(=NC(=O)Nc1c2c(cc3c1CCC3)CCC2)c1ccc(C2CCCC2)nc1` (single isomer, unassigned) [Example 587, (R) or (S)-6-cyclopentyl-N′-((1,2,3,5,6,7-hexahydro-s-indacen-4-yl)carbamoyl)pyridine-3-sulfonimidamide], the IC50 was more than 30 µM.
For the compound `N[S@](=O)(=NC(=O)Nc1c2c(cc3c1CCC3)CCC2)c1ccc(C(F)F)nc1` (single isomer, unassigned) [Example 594, (S) or (R)-6-(difluoromethyl)-N′-((1,2,3,5,6,7-hexahydroxy-indacen-4-yl)carbamoyl) pyridine-3-sulfonimidamide], the IC50 was more than 30 µM.
